For the assay, the system named is gilts. As to the kind of experiment: Example 1: ovulation monitored by transrectal ultrasonography after 200 mcg triptorelin gel intravaginally at 96, 120 or 144 h after MATRIX withdrawal. The format is in vivo, swine. Particulars: 200 mcg T, raw average, PTK 1-07 (rep 3). How it is done: All gilts were individually fed MATRIX® as a top-dress for 14 days at the recommended rate of 15 mg/gilt/day. Gilts were withdrawn from MATRIX® feeding (last top feed in the morning on Day 0) and allotted to treatments. Controls were treated with a 1.2% methylcellulose gel formulation without triptorelin at 96 hours following MATRIX® withdrawal (last top-dress). The remaining gilts received 200 mcg triptorelin, as the acetate, in a 1.2% methylcellulose gel formulation intravaginally at various times after MATRIX® withdrawal. The four treatments were: 1) vehicle gel (VG) treatment at 96 hours after MATRIX® withdrawal, 2) triptorelin gel (TG) treatment at 96 hours after MATRIX® withdrawal, 3) TG treatment at 120 hours after MATRIX® withdrawal and 4) TG treatment at 144 hours after MATRIX® withdrawal. All gilts were monitored for their estrous and ovulatory status as described below. Gilts included in replicate 1 were selected from terminal line commercial production gilts located in grow/finish barns. Sexual maturity, as indicated by one or more estrous periods, was not verified prior to the start of MATRIX® feeding. Gilts included in replicate 2 were selected from a maternal line gilt population. Sexual maturity was verified by at least one estrous period verified and recorded prior to starting MATRIX® feeding.
Triptorelin (pGlu-His-Trp-Ser-Tyr-D-Trp-Leu-Arg-Pro-Gly-NH2) was supplied in the acetate form, from Bachem, Torrance, Calif. (Item H-4075 CGMP grade). Triptorelin gel (200 μg/2 mL) was formulated by Argenta (Auckland, NZ) in a gel composed of Methocel Premium A4000 (Dow Chemical), citrate buffer (pH 5.5), NaCl, methionine and EDTA (as potential stabilizers) and methyl and propyl parabens (as preservatives). Fifty-four milliliters of triptorelin gel (100 mcg triptorelin acetate/mL) was packaged in Amber Borosilicate Glass Serum Vials (610206-50) with a Gray Butyl Pharmaceutical Serum Vial Stopper (73828A-SS) with a Standard Aluminum Seal (SAS20NAT). […] MATRIX® was supplied as the US commercially available form.
The ovulatory status of all gilts was monitored by transrectal ultrasonography. For replicate one, ovulation was monitored two times on Day 5, then three times a day from Day 6 to Day 8. For replicate two, ovulation was monitored three times a day from Day 5 to Day 8. An Aloka 500 ultrasound machine with a 7.5 MHz linear array transducer attached to a fixed-angle PVC stabilizing rod to facilitate insertion into the rectum was used for this purpose. The transducer and PVC rod were coated with a gynecological lubricant and gently inserted into the rectum until the ovaries were visualized, one at a time. The diameters of the three largest follicles were recorded (to the nearest 0.1 mm) at each scanning. A gilt was declared to have ovulated when the number of large follicles (≧6.5 mm) fell to less than 3.
A single 2 mL dose of triptorelin gel or vehicle gel was deposited within approximately 1-2 cm posterior to the cervix with a catheter similar to those used for artificial insemination. The dose was delivered using a standard multi-dose applicator attached to the catheter. A new disposable sheath, which surrounds the catheter, was used for each gilt.
Data were analyzed using the Mixed Models procedures of SAS. Models included main effects of time of treatment following the last feeding of MATRIX®, replicate, and treatment by replicate interaction. Differences between treatments were tested on least squares means estimates using the T test at P<0.05. Data for analysis were tested for assumptions of data normality.

Turning to `CC(C)C[C@H](NC(=O)[C@@H](Cc1c[nH]c2ccccc12)NC(=O)[C@H](Cc1ccc(O)cc1)NC(=O)[C@H](CO)NC(=O)[C@H](Cc1c[nH]c2ccccc12)NC(=O)[C@H](Cc1c[nH]cn1)NC(=O)[C@@H]1CCC(=O)N1)C(=O)N[C@@H](CCCNC(=N)N)C(=O)N1CCC[C@H]1C(=O)NCC(N)=O` [T, pGlu-His-Trp-Ser-Tyr-D-Trp-Leu-Arg-Pro-Gly-NH2], the “% of Sows Ovulating” value (128 h post-MATRIX (8 h post-T)) amounted to 0.0%; the “% of Sows Ovulating” value (136 h post-MATRIX (16 h post-T)) is recorded as 10.0%; the “% of Sows Ovulating” value (144 h post-MATRIX (24 h post-T)) is given as 30.0%; the “% of Sows Ovulating” value (152 h post-MATRIX (32 h post-T)) is recorded as 70.0%; the “% of Sows Ovulating” value (160 h post-MATRIX (40 h post-T)) is reported as 80.0%; the “% of Sows Ovulating” value (168 h post-MATRIX (48 h post-T)) amounted to 90.0%. Also, the “% of Sows Ovulating” value (176 h post-MATRIX (56 h post-T)) stood at 100.0%.

(Values after patent publication US9724380B2, “Method and compositions for synchronizing time of insemination in gilts” (JBS UNITED ANIMAL HEALTH II LLC, priority 2012, dated 2017).)
